Test results published in patent US12558325B2, “Methods for improving neurological diseases and disorders” (CuraSen Therapeutics, Inc., priority 2019, dated 2026).
Entries after “also recorded” stand apart in the source; their conditions may differ.

Columns and labels:
Ts65Dn mice = conditions: increasing brain NE levels; cited from earlier work
subjects = test: Visual verbal learning test (VVLT); assay type: in vivo, human; conditions: crossover study; for effect on the VVLT (learning and memory): 3 agents plus placebo
Procedure: The visual verbal learning test (VVLT) is a test for learning and memory (de Haas 2009). Subjects are presented 30 words on a screen, one at a time, for 1 second with a 1-second interval between words over a total of 1 minute. This is repeated in 3 trials. After each trial, subjects are asked to recall as many words as they can. After the third trial, there is a delay of 2.5 hours and subjects are then tested once for delayed recall. […] Since this was a crossover study, everyone who completed Part A was dosed with the 3 agents plus placebo.

patients = test: Cerebral blood flow relative to baseline after a single dose (Example 1); assay type: in vivo, human
healthy subjects [1] = test: ASL MRI cerebral perfusion before and after a single dose (Example 3); assay type: in vivo, human
Procedure: In a clinical study, healthy subjects were administered doses of clenbuterol ranging from 20 to 160 μg and ASL MRI was conducted prior to and after dosing with an objective to ascertain whether this neuroimaging method enables the detection of a clinically relevant CNS signal.
In a region of interest (ROI) analysis focusing on the hippocampus, which is well understood to be affected in neurodegenerative disorders, a single dose of 80 μg of clenbuterol causes a robust increase in perfusion (see FIG. 7). […] Taken together with other cohorts in which ASL MRI was conducted, a clear dose response relationship is seen between dose of clenbuterol and cerebral perfusion (FIG. 8). […] Our hypothesis is that by improving cerebral perfusion, particularly in areas of the brain that are relevant for symptoms that are commonly found in neurodegenerative diseases such as PD and AD, the administration of a β2-AR agonist will have a positive effect on clinically relevant symptoms such as memory and cognition.

healthy subjects [2] = test: Adaptive tracking test (visuomotor coordination and vigilance); assay type: in vivo, human; conditions: single dose of 160 μg clenbuterol
From the text: Adaptive tracking measures visuomotor coordination and vigilance. In this test, the subject uses a joystick to move a small dot so that it stays within a continuously moving circle on a computer screen (Boland 1984). During the test, the speed of the circle is adjusted in response to the subject's ability to keep the dot in the circle, ensuring that the test is adapted to the individual subject. […] The improvement shown by subjects is in the same range as that seen with subjects treated with the acetylcholinesterase inhibitor donepezil, which is in clinical use for the treatment of mild to moderate AD (Groeneveld 2016).

## N[C@H](C(=O)O)[C@H](O)c1ccc(O)c(O)c1 [L-DOPS, L-threo-3,4-dihydroxyphenylserine]
Ts65Dn mice
  contextual learning: restored contextual learning

## CC(C)(C)NCC(O)c1ccc(O)c(CO)c1 (stereo not shown) [salbutamol]
subjects
  effect on the VVLT (learning and memory): positive effects

## CC(C)(C)NCC(O)c1cc(Cl)c(N)c(Cl)c1 (stereo not shown) [clenbuterol]
patients; single dose of clenbuterol 160 μg
  cerebral blood flow (CBF) relative to the baseline: robust global increase; also recorded: positive increase
patients; single dose of clenbuterol ranging from 30 to 160 μg, tracked over 3 days
  cerebral blood flow (CBF) relative to the baseline: robust global increase
Healthy subjects [1]; clenbuterol dose of 40 μg
  cerebral perfusion increase as measured by CBF: minimal increase
Healthy subjects [1]; clenbuterol doses below 30 μg
  cerebral perfusion increase as measured by CBF: do not produce significant cerebral perfusion increases
Healthy subjects [1]; doses of 80 and 160 μg clenbuterol
  improvements in perfusion in brain areas relevant to neurodegenerative disorders: ~25%
Healthy subjects [1]; doses of 80 and 160 μg clenbuterol, ASL MRI
  global perfusion: robust, global increase
Healthy subjects [1]; single dose of 80 μg clenbuterol, 6 healthy subjects aged 44 to 52, ROI hippocampus
  increase in hippocampal perfusion, on average: 25%
Healthy subjects [1]; single dose of 160 μg clenbuterol, ASL MRI
  cerebral perfusion (global; hippocampus, thalamus, cortex): robust global increase
Healthy subjects [2]
  performance in adaptive tracking (percent time dot kept within moving circle): improved
Healthy subjects [2]; healthy subjects, preliminary data
  cognition as measured by adaptive tracking and word recall: improves cognition
subjects
  VVLT performance, immediate recall (Trial 1): improved performance
  effect on the VVLT (learning and memory): positive effects
subjects; recall after delay of 2.5 hours
  VVLT performance, delayed recall: improved performance

## CC(C)NCC(O)COc1cccc2[nH]ccc12 (stereo not shown) [pindolol]
subjects
  effect on the VVLT (learning and memory): detrimental effect
